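Step 1: Grow cells in 96-well plates. Step 2: Expose to compound for 48 hours at 5 concentrations. Step 3: Interpolate endpoints linearly; if unreached, use highest concentration. At the GI50, growth is halved.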 Calls of active or inactive are those of the source. Cut-off read from the data, not from the text of the source: active = GI50 up to about 1.1 µM and inactive = higher. A value given as a limit tells only on which side of the number the result lay.

Among the test systems are BT-549; DLD-1; DMS-114; DU-145; HCT-116; HL-60; HT-29; Hs-578T; M19-MEL; MDA-MB-231; MDA-MB-435; MDA-N; OVCAR-5; OVCAR-8; PC-3; SF-268; SF-295; SF-539; T47D; UACC-62.
What all share (experiment): NCI-60 cell line screen, 48 h

As for `O=C(CCCN1CCC(C(O)c2ccc(F)cc2)CC1)c1ccc(F)cc1` (stereo unspecified), the GI50 is 45.4 µM (inactive) with BT-549; 51.8 µM (inactive) with DLD-1; 49.7 µM (inactive) with DMS-114; 61.9 µM (inactive) in the assay on DU-145; 57 µM (inactive) in the assay with HCT-116; 35.9 µM (inactive) with HL-60. The GI50 in the assay with HT-29 was 42.3 µM (inactive); in the assay on Hs-578T, 46.1 µM (inactive); in the assay with M19-MEL it was 59.6 µM (inactive); with MDA-MB-231 it was 39.8 µM (inactive); with MDA-MB-435, 57 µM (inactive); with MDA-N, 61 µM (inactive). Further, the GI50 in the assay with OVCAR-5 was 58.2 µM (inactive); in the assay with OVCAR-8, 64.7 µM (inactive); in the assay on PC-3 it was 47.1 µM (inactive); in the assay with SF-268, 59.6 µM (inactive); in the assay on SF-295, 63.5 µM (inactive); in the assay with SF-539, 59.4 µM (inactive). The values for the GI50 in the assay on T47D and in the assay on UACC-62 were 56.1 µM (inactive) and 57 µM (inactive), respectively.

As for `COc1ccc2c(c1)OC[C@@H]1c3cc(O)c(OCc4ccccc4)cc3O[C@H]21`, the GI50 was 36.1 µM (inactive) in the assay with DLD-1; 19.5 µM (inactive) in the assay with DMS-114; 29.9 µM (inactive) in the assay with HCT-116; 16.8 µM (inactive) with HL-60; 34.2 µM (inactive) with HT-29; 27 µM (inactive) in the assay on M19-MEL. For the same compound, the GI50 was 66.5 µM (inactive) in the assay on OVCAR-5; 29.5 µM (inactive) with OVCAR-8; 28.3 µM (inactive) in the assay with SF-268; 28.8 µM (inactive) in the assay on SF-295; 90.4 µM (inactive) in the assay on SF-539; 18.1 µM (inactive) in the assay with UACC-62.

Consider `Cc1c2cc[n+](C)cc2c(C)c2c1[nH]c1ccccc12`, for which the GI50 in the assay on BT-549 is 2.38 µM (inactive); with DLD-1, 1.65 µM (inactive); in the assay on DMS-114, 0.315 µM (active); in the assay on DU-145, 0.52 µM (active); in the assay with HCT-116, 3.76 µM (inactive); in the assay on HL-60 it was 8.69 µM (inactive). The GI50 in the assay on HT-29 is 5.66 µM (inactive); in the assay on M19-MEL, 0.718 µM (active); in the assay with MDA-MB-435 it was 9.02 µM (inactive); with MDA-N, 1.92 µM (inactive); in the assay with OVCAR-5, 10.2 µM (inactive); with OVCAR-8, 0.368 µM (active). For the same compound, the GI50 with PC-3 is 4.83 µM (inactive); in the assay on SF-268, 0.467 µM (active); in the assay with SF-295, 0.237 µM (active); with SF-539, 0.505 µM (active); with T47D it was 0.157 µM (active); in the assay on UACC-62, 5.18 µM (inactive).

For the compound `Cn1c(=O)c2nc3sc4c(n3c2n(C)c1=O)C(=O)c1ccccc1C4=O`, the GI50 with BT-549 was > 44.7 µM (inactive); in the assay on DLD-1 it was > 100 µM (inactive); with DMS-114, > 100 µM (inactive); in the assay with DU-145, > 65 µM (inactive); in the assay on HCT-116, > 54.8 µM (inactive); in the assay with HL-60, 11.2 µM (inactive). Besides, the GI50 in the assay on HT-29 is 42.6 µM (inactive); in the assay on Hs-578T it was 23.3 µM (inactive); with M19-MEL it was > 86.7 µM (inactive); with MDA-MB-231, > 42.4 µM (inactive); in the assay on MDA-MB-435 it was > 28.4 µM (inactive); in the assay with MDA-N it was > 64.3 µM (inactive). Besides, the GI50 in the assay on OVCAR-5 is > 100 µM (inactive); in the assay on OVCAR-8, > 58.6 µM (inactive); in the assay with PC-3, > 42 µM (inactive); with SF-268 it was > 78.5 µM (inactive); in the assay with SF-295, > 72.3 µM (inactive); with SF-539, > 61.7 µM (inactive). Also, the GI50 in the assay with T47D was 0.893 µM (active); in the assay with UACC-62 it was > 100 µM (inactive).

As to `CCN(CC)CCn1nc2c3c(c(NCCN)ccc31)Sc1cc(O)ccc1-2`, the GI50 in the assay on DLD-1 was 1.25 µM (inactive); in the assay on DMS-114, 0.31 µM (active); in the assay on HCT-116, 0.327 µM (active); in the assay on HL-60 it was 0.0962 µM (active); with HT-29, 0.507 µM (active); in the assay with M19-MEL, 0.347 µM (active). Besides, the GI50 in the assay with OVCAR-5 is 1.56 µM (inactive); in the assay with OVCAR-8, 0.535 µM (active); with SF-268, 0.493 µM (active); in the assay with SF-295 it was 0.861 µM (active); in the assay with SF-539, 0.406 µM (active); in the assay on UACC-62, 0.371 µM (active).

On to `Nc1ccc2cc(S(=O)(=O)O)cc(O)c2c1/N=N/c1ccc(NC(=O)Nc2ccc(/N=N/c3c(N)ccc4cc(S(=O)(=O)O)cc(O)c34)c(S(=O)(=O)O)c2)cc1S(=O)(=O)O`, for which the GI50 is > 100 µM (inactive) in the assay with DLD-1; 98.6 µM (inactive) in the assay on DMS-114; > 100 µM (inactive) in the assay with HCT-116; 44.4 µM (inactive) with HL-60; > 100 µM (inactive) in the assay on HT-29; > 100 µM (inactive) in the assay on M19-MEL. The GI50 is > 79.6 µM (inactive) in the assay with OVCAR-5; > 100 µM (inactive) with OVCAR-8; > 100 µM (inactive) with SF-268; > 100 µM (inactive) in the assay with SF-295; > 100 µM (inactive) in the assay with SF-539; > 100 µM (inactive) in the assay with UACC-62.

Consider `CC1(CO)OC(n2cnc3c(N)ncnc32)C(O)C1O` (stereo unspecified), for which the GI50 in the assay on DLD-1, with DMS-114, with HCT-116, in the assay on HL-60, in the assay on HT-29 and in the assay on M19-MEL was > 100 µM (inactive) throughout. Also, the GI50 with OVCAR-5, in the assay on OVCAR-8, in the assay on SF-268, in the assay with SF-295, with SF-539 and in the assay on UACC-62 was > 100 µM (inactive) each time.

In the case of `c1ccc(C2N3CCCCC3[C@@H]3c4[nH]c5ccccc5c4CCN23)cc1` (stereo partly specified), the GI50 is 54.1 µM (inactive) in the assay with DLD-1; 38.7 µM (inactive) in the assay with DMS-114; 64 µM (inactive) in the assay on HCT-116; 22.1 µM (inactive) in the assay on HL-60; 17.5 µM (inactive) in the assay on HT-29; 58.2 µM (inactive) with M19-MEL. Moreover, the GI50 is > 100 µM (inactive) in the assay on OVCAR-5; > 100 µM (inactive) with OVCAR-8; > 100 µM (inactive) in the assay on SF-268; > 100 µM (inactive) in the assay on SF-295; > 100 µM (inactive) with SF-539; 48.3 µM (inactive) with UACC-62.

`Cc1c2c(cc3c1[nH]c1ccccc13)C(c1ccc(Cl)cc1)=NCC2`: the GI50 in the assay on DLD-1 is 0.452 µM (active); in the assay on DMS-114 it was 0.347 µM (active); in the assay with HCT-116, 0.542 µM (active); in the assay on HL-60, 0.288 µM (active); in the assay with HT-29, 0.203 µM (active); with M19-MEL it was 0.726 µM (active). For the same compound, the GI50 is 7.78 µM (inactive) in the assay on OVCAR-5; 0.804 µM (active) with OVCAR-8; 0.598 µM (active) in the assay on SF-268; 0.255 µM (active) with SF-295; 0.667 µM (active) in the assay on SF-539; 0.452 µM (active) with UACC-62.

Take `COc1ccc2c(c1)[n+]([O-])c(C(C)=O)c(C)[n+]2[O-]`: the GI50 with DLD-1, in the assay with DMS-114, with HCT-116, with HL-60, in the assay with HT-29 and in the assay on M19-MEL was > 100 µM (inactive) throughout. The GI50 with OVCAR-5, in the assay with OVCAR-8, with SF-268, in the assay on SF-295, in the assay with SF-539 and in the assay on UACC-62 was > 100 µM (inactive) throughout.

As for `CC1(C)OC2OC(COC(=O)C(c3ccccc3)c3ccccc3)C3OC(C)(C)OC3C2O1` (stereo unspecified), the GI50 in the assay with DLD-1 is 7.98 µM (inactive); in the assay on DMS-114, 22.2 µM (inactive); in the assay on HCT-116, > 10 µM (inactive); with HL-60, 4.21 µM (inactive); in the assay with HT-29 it was 8.79 µM (inactive); in the assay on M19-MEL it was 66.7 µM (inactive). The GI50 with OVCAR-5 was > 10 µM (inactive); with OVCAR-8 it was 53 µM (inactive); in the assay on SF-268, 16.9 µM (inactive); in the assay on SF-295, 10.7 µM (inactive); in the assay with SF-539, 95.9 µM (inactive); in the assay with UACC-62, 9.27 µM (inactive).

On to `CCCCCCCCCCCCNC(=S)OC`, for which the GI50 in the assay with DLD-1 was 15 µM (inactive); in the assay with DMS-114, 4.63 µM (inactive); in the assay with HCT-116, 15.4 µM (inactive); with HL-60 it was 10.5 µM (inactive); in the assay on HT-29, 16.7 µM (inactive); in the assay with M19-MEL it was 17.9 µM (inactive). In addition, the GI50 was 16.3 µM (inactive) in the assay with OVCAR-5; 15.8 µM (inactive) in the assay on OVCAR-8; 16.6 µM (inactive) in the assay on SF-268; 19.4 µM (inactive) with SF-295; 17 µM (inactive) in the assay on SF-539; 16.1 µM (inactive) in the assay with UACC-62.
